From patent publication US20240409585A1, “MACROCYCLIC IMMUNOMODULATORS” (priority 2021, published 2024)
Bridge positions count the residues as written; N and C are the ends. Square brackets hold non-standard residues; d marks the D form. Peptide text beside a SMILES is read from it. * marks the point of attachment. ξ: configuration not given here. Ala(morpholin-4-yl) = N[C@@H](CN1CCOCC1)C(=O)O; Phe(4-COOH) = N[C@@H](Cc1ccc(C(=O)O)cc1)C(=O)O; Bip = N[C@@H](Cc1ccc(-c2ccccc2)cc1)C(=O)O; Phe(3-CN) = N#Cc1cccc(C[C@H](N)C(=O)O)c1; Phe(3-OMe) = COc1cccc(C[C@H](N)C(=O)O)c1; Phe(3-Me) = Cc1cccc(C[C@H](N)C(=O)O)c1; Phe(2-Me) = Cc1ccccc1C[C@H](N)C(=O)O; Val(3-OH) = CC(C)(O)[C@H](N)C(=O)O; Cha = N[C@@H](CC1CCCCC1)C(=O)O; Ile(3ξ) = CCC(C)[C@H](N)C(=O)O; AllylGly = C=CC[C@H](N)C(=O)O; Thr(3ξ) = CC(O)[C@H](N)C(=O)O; ξTle = CC(C)(C)C(N)C(=O)O; Carboxymethyl = O=C(O)C*; NMeA = CN[C@@H](C)C(=O)O; Nle = CCCC[C@H](N)C(=O)O; Orn = NCCC[C@H](N)C(=O)O; Dab = NCC[C@H](N)C(=O)O; Nva = CCC[C@H](N)C(=O)O; Dap = NC[C@H](N)C(=O)O; ξL = CC(C)CC(N)C(=O)O; NH(CH2)3NH2 = NCCCN*; ξDab = NCCC(N)C(=O)O; ξC = NC(CS)C(=O)O

target: T1, PE-labeled human PD-L1-Ig binding to Jurkat cell line over-expressing human PD-1 (Jurkat-PD-1) (Homo sapiens, UniProt Q15116); assay: Jurkat-PD-1 Cell Binding High-Content Screening Assay (CBA): Method 1; conditions: Jurkat-hPD-1 cells, PE-labeled PD-L1-Ig 20 nM final; read-out: Jurkat HPDL1 PD1 IC50 (uM) (Method 1)
T1 construct: expressed in transfected cells; host or cells: Jurkat
T1 sequence (Q15116 25-288): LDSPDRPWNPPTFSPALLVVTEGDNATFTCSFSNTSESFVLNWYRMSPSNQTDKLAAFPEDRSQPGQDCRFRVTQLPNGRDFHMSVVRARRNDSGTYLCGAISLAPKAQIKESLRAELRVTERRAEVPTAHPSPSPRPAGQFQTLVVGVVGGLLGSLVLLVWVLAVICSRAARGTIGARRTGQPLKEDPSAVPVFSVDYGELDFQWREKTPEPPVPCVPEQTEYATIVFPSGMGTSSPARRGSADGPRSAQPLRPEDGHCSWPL

Row | Structure (SMILES) | IC50
1 | CCCC[C@@H]1NC(=O)[C@H](CCCNC(=N)N)NC(=O)[C@@H](CC(C)C)NC(=O)[C@H](C)N(C)C(=O)[C@H]([C@@H](C)CC)NC(=O)[C@H](Cc2ccc(-c3ccccc3)cc2)NC(=O)[C@H](C(C)C)NC(=O)[C@H](Cc2c[nH]c3ccccc23)NC(=O)[C@H](CC(=O)O)NC(=O)[C@H](Cc2ccc(O)cc2)NC(=O)[C@H](CN)NC(=O)CSC[C@@H](C(=O)N[C@@H](C)C(N)=O)NC(=O)[C@H]([C@@H](C)O)NC(=O)[C@H](C(C)C)NC1=O [Compound 1496] ({CH2CO}-[Dap]YDWV[Bip]I[NMeA][dL]R[Nle]VTCA-NH2; thioether N-14) | 0.18 µM
2 | CCC(C)[C@@H]1NC(=O)[C@H](Cc2ccc(-c3ccccc3)cc2)NC(=O)[C@H](C(C)C)NC(=O)[C@H](Cc2c[nH]c3ccccc23)NC(=O)[C@H](CC(=O)O)NC(=O)[C@H](Cc2ccc(O)cc2)NC(=O)[C@H](C(C)O)NC(=O)CSC[C@@H](C(=O)NCCCN)NC(=O)[C@H](C(C)O)NC(=O)[C@H](C(C)(C)O)NC(=O)[C@H](CC2CCCCC2)NC(=O)[C@H](CC(N)=O)NC(=O)[C@@H](CC(C)C)NC(=O)[C@H](C)N(C)C1=O (stereo partly drawn) [Compound 2266] ({CH2CO}-[Thr(3ξ)]YDWV[Bip][Ile(3ξ)][NMeA][dL]N[Cha][Val(3-OH)][Thr(3ξ)]C-{NH(CH2)3NH2}; thioether N-14) | 0.15 µM
3 | CCC[C@@H]1NC(=O)[C@H](C)N(C)C(=O)[C@H](C(C)C)NC(=O)[C@H](Cc2ccc(-c3ccccc3)cc2)NC(=O)[C@H](CC(C)C)NC(=O)[C@H](Cc2c[nH]c3ccccc23)NC(=O)[C@H](CC(=O)O)NC(=O)[C@H](Cc2ccc(O)cc2)NC(=O)[C@H](Cc2ccccc2)NC(=O)CSC[C@@H](C(=O)NCC(N)=O)NC(=O)[C@H](CO)NC(=O)[C@H](C(C)C)NC(=O)[C@H](CC(C)C)NC(=O)[C@H](CC(N)=O)NC1=O [Compound 1803] ({CH2CO}-FYDWL[Bip]V[NMeA][Nva]NLVSCG-NH2; thioether N-14) | 0.2 µM
4 | Cc1ccccc1C[C@@H]1NC(=O)[C@H](CC(=O)O)NC(=O)[C@H](Cc2ccc(O)cc2)NC(=O)[C@H](CC(N)=O)NC(=O)CSC[C@@H](C(=O)N[C@@H](C)C(N)=O)NC(=O)[C@H]([C@@H](C)O)NC(=O)[C@H](C(C)C)NC(=O)[C@H](CC(C)C)NC(=O)[C@H](CCCNC(=N)N)NC(=O)[C@@H](CC(C)C)NC(=O)[C@H](C)N(C)C(=O)[C@H](CCCNC(=N)N)NC(=O)[C@H](Cc2ccc(-c3ccccc3)cc2)NC(=O)[C@H](C(C)C)NC1=O [Compound 1197] ({CH2CO}-NYD[Phe(2-Me)]V[Bip]R[NMeA][dL]RLVTCA-NH2; thioether N-14) | 0.36 µM
5 | CC(C)C[C@@H]1NC(=O)[C@H](Cc2c[nH]c3ccccc23)NC(=O)[C@H](CC(=O)O)NC(=O)[C@H](Cc2ccc(O)cc2)NC(=O)[C@H](Cc2ccccc2)NC(=O)CSC[C@@H](C(=O)N[C@@H](C)C(N)=O)NC(=O)[C@H](CO)NC(=O)[C@H](C(C)C)NC(=O)[C@H](CC(C)C)NC(=O)[C@H](CC(=O)O)NC(=O)C(C(C)(C)C)NC(=O)[C@H](C)N(C)C(=O)[C@H](C(C)C)NC(=O)[C@H](Cc2ccc(-c3ccccc3)cc2)NC1=O (stereo partly drawn) [Compound 1827] ({CH2CO}-FYDWL[Bip]V[NMeA][ξTle]DLVSCA-NH2; thioether N-14) | 0.79 µM
6 | Cc1cccc(C[C@@H]2NC(=O)[C@H](CC(=O)O)NC(=O)[C@H](Cc3ccc(OCC(=O)O)cc3)NC(=O)[C@H](CN3CCOCC3)NC(=O)CSC[C@@H](C(=O)NC(CCN)C(N)=O)NC(=O)[C@H](CCCN)NC(=O)[C@H](C(C)C)NC(=O)[C@H](Cc3ccc(O)cc3)NC(=O)[C@H](CCN)NC(=O)[C@@H](CC(C)C)NC(=O)[C@H](C)N(C)C(=O)[C@H](CCC(N)=O)NC(=O)[C@H](Cc3ccc(-c4ccccc4)cc3)NC(=O)[C@H](Cc3ccc(C(=O)O)cc3)NC2=O)c1 (stereo partly drawn) [Example 2301] ({CH2CO}-[Ala(morpholin-4-yl)]Y(Carboxymethyl)D[Phe(3-Me)][Phe(4-COOH)][Bip]Q[NMeA][dL][Dab]YV[Orn]C[ξDab]-NH2; thioether N-14) | 0.98 µM

These reach a lower IC50. Values come first.

Row | IC50 | Structure (SMILES)
7 | 0.01 µM | COc1cccc(C[C@@H]2NC(=O)[C@H](Cc3ccccc3)NC(=O)CSC[C@@H](C(=O)N[C@@H](C)C(N)=O)NC(=O)[C@H](CO)NC(=O)[C@H](C(C)C)NC(=O)[C@H](CC(C)C)NC(=O)[C@H](CC(N)=O)NC(=O)[C@@H](C)NC(=O)[C@H](C)N(C)C(=O)[C@H](C(C)C)NC(=O)[C@H](Cc3ccc(-c4ccccc4)cc3)NC(=O)[C@H](CC(C)C)NC(=O)[C@H](Cc3c[nH]c4ccccc34)NC(=O)[C@H](CC(=O)O)NC2=O)c1 [Compound 1732] ({CH2CO}-F[Phe(3-OMe)]DWL[Bip]V[NMeA][dA]NLVSCA-NH2; thioether N-14)
8 | 0.08 µM | CC(C)C[C@@H]1NC(=O)[C@H](CCN)NC(=O)[C@@H](CC(C)C)NC(=O)[C@H](C)N(C)C(=O)[C@H](CCCNC(=N)N)NC(=O)[C@H](Cc2ccc(-c3ccccc3)cc2)NC(=O)[C@H](C(C)C)NC(=O)[C@H](Cc2c[nH]c3ccccc23)NC(=O)[C@H](CC(=O)O)NC(=O)[C@H](Cc2cccc(C#N)c2)NC(=O)[C@H](CN)NC(=O)CSC[C@@H](C(=O)N[C@@H](C)C(N)=O)NC(=O)[C@H]([C@@H](C)O)NC(=O)[C@H](C(C)C)NC1=O [Compound 1455] ({CH2CO}-[Dap][Phe(3-CN)]DWV[Bip]R[NMeA][dL][Dab]LVTCA-NH2; thioether N-14)
9 | 0.05 µM | CC(C)C[C@@H]1NC(=O)[C@H](C)NC(=O)[C@@H](C)NC(=O)[C@H](C)N(C)C(=O)[C@H](CCC(=O)O)NC(=O)[C@H](Cc2ccc(-c3ccccc3)cc2)NC(=O)[C@H](CC(C)C)NC(=O)[C@H](Cc2c[nH]c3ccccc23)NC(=O)[C@H](CC(=O)O)NC(=O)[C@H](Cc2ccc(C(=O)O)cc2)NC(=O)[C@H](Cc2ccccc2)NC(=O)CSC[C@@H](C(=O)N[C@@H](C)C(N)=O)NC(=O)[C@H](CO)NC(=O)[C@H](C(C)C)NC1=O [Compound 1773] ({CH2CO}-F[Phe(4-COOH)]DWL[Bip]E[NMeA][dA]ALVSCA-NH2; thioether N-14)
10 | 0.13 µM | CC(C)C[C@@H]1NC(=O)[C@H](CCCNC(=N)N)NC(=O)[C@@H](C)NC(=O)[C@H](C)N(C)C(=O)[C@H](CCCNC(=N)N)NC(=O)[C@H](Cc2ccc(-c3ccccc3)cc2)NC(=O)[C@H](C(C)C)NC(=O)[C@H](Cc2c[nH]c3ccccc23)NC(=O)[C@H](CC(=O)O)NC(=O)[C@H](Cc2ccc(O)cc2)NC(=O)[C@H](Cc2ccccc2)NC(=O)CSC[C@@H](C(=O)NCC(N)=O)NC(=O)[C@H](CO)NC(=O)[C@H](C(C)C)NC1=O [Compound 1016] ({CH2CO}-FYDWV[Bip]R[NMeA][dA]RLVSCG-NH2; thioether N-14)
11 | 0.01 µM | Cc1cccc(C[C@@H]2NC(=O)[C@H](CC(=O)O)NC(=O)[C@H](Cc3ccc(C(=O)O)cc3)NC(=O)[C@H](CN)NC(=O)CSC[C@@H](C(=O)N[C@@H](C)C(N)=O)NC(=O)[C@H]([C@@H](C)O)NC(=O)[C@H](C(C)C)NC(=O)[C@H](CC(C)C)NC(=O)[C@H](CCN)NC(=O)[C@@H](CC(C)C)NC(=O)[C@H](C)N(C)C(=O)[C@H](CCCNC(=N)N)NC(=O)[C@H](Cc3ccc(-c4ccccc4)cc3)NC(=O)[C@H](C(C)C)NC2=O)c1 [Compound 1457] ({CH2CO}-[Dap][Phe(4-COOH)]D[Phe(3-Me)]V[Bip]R[NMeA][dL][Dab]LVTCA-NH2; thioether N-14)
12 | 0.03 µM | C=CC[C@H](NC(=O)C1CSCC(=O)N[C@@H](Cc2ccc(OCC(=O)O)cc2)C(=O)N[C@@H](CC=C)C(=O)N[C@@H](CC(=O)O)C(=O)N[C@@H](Cc2cccc(C)c2)C(=O)N[C@@H](CC(C)C)C(=O)N[C@@H](Cc2ccc(-c3ccccc3)cc2)C(=O)N[C@@H](C(C)C)C(=O)N(C)[C@@H](C)C(=O)N[C@H](CC(C)C)C(=O)N[C@@H](CC(N)=O)C(=O)N[C@@H](CC(C)C)C(=O)N[C@@H](C(C)C)C(=O)N[C@@H](CO)C(=O)N1)C(N)=O (stereo partly drawn) [Compound 1884] ({CH2CO}-Y(Carboxymethyl)[AllylGly]D[Phe(3-Me)]L[Bip]V[NMeA][dL]NLVS[ξC][AllylGly]-NH2; thioether N-14)
13 | 0.02 µM | CCC(C)[C@@H]1NC(=O)[C@H](Cc2ccc(-c3ccccc3)cc2)NC(=O)[C@H](C(C)C)NC(=O)[C@H](Cc2c[nH]c3ccccc23)NC(=O)[C@H](CC(=O)O)NC(=O)[C@H](Cc2ccc(OCC(=O)O)cc2)NC(=O)[C@H](C(C)O)NC(=O)CSC[C@@H](C(=O)N[C@@H](CCN)C(N)=O)NC(=O)[C@H](C(C)O)NC(=O)[C@H](C(C)C)NC(=O)[C@H](CC2CCCCC2)NC(=O)[C@H](CCN)NC(=O)C(CC(C)C)NC(=O)[C@H](C)N(C)C1=O (stereo partly drawn) [Compound 2114] ({CH2CO}-[Thr(3ξ)]Y(Carboxymethyl)DWV[Bip][Ile(3ξ)][NMeA][ξL][Dab][Cha]V[Thr(3ξ)]C[Dab]-NH2; thioether N-14)
14 | 0.09 µM | Cc1cccc(C[C@@H]2NC(=O)[C@H](CC(=O)O)NC(=O)[C@H](Cc3ccc(OCC(=O)O)cc3)NC(=O)[C@H](CC(N)=O)NC(=O)CSC[C@@H](C(N)=O)NC(=O)[C@H]([C@@H](C)O)NC(=O)[C@H](C(C)C)NC(=O)[C@H](CC3CCCCC3)NC(=O)[C@H](CCN)NC(=O)[C@@H](CC(C)C)NC(=O)[C@H](C)N(C)C(=O)[C@H](Cc3ccc(OCC(=O)O)cc3)NC(=O)[C@H](Cc3ccc(-c4ccccc4)cc3)NC(=O)[C@H](Cc3ccc(OCC(=O)O)cc3)NC2=O)c1 [Compound 1666] ({CH2CO}-NY(Carboxymethyl)D[Phe(3-Me)]Y(Carboxymethyl)[Bip]Y(Carboxymethyl)[NMeA][dL][Dab][Cha]VTC-NH2; thioether N-14)
15 | 0.11 µM | CC(C)C[C@@H]1NC(=O)[C@H](CCCCN)NC(=O)[C@@H](CC(C)C)NC(=O)[C@H](C)N(C)C(=O)[C@H](Cc2cnc[nH]2)NC(=O)[C@H](Cc2ccc(-c3ccccc3)cc2)NC(=O)[C@H](C(C)C)NC(=O)[C@H](Cc2c[nH]c3ccccc23)NC(=O)[C@H](CC(=O)O)NC(=O)[C@H](Cc2ccc(O)cc2)NC(=O)[C@H](CC(N)=O)NC(=O)CSC[C@@H](C(=O)N[C@@H](C)C(N)=O)NC(=O)[C@H](CO)NC(=O)[C@H](C(C)C)NC1=O [Compound 1482] ({CH2CO}-NYDWV[Bip]H[NMeA][dL]KLVSCA-NH2; thioether N-14)
